Data taken from patent publication US20250313563A1, “GLYCOGEN SYNTHASE KINASE 3 INHIBITORS AND USES THEREOF” (The Broad Institute, Inc., priority 2022, published 2025).
Where two headings read alike, the source gives them in different places. Each block holds one compound with its values, some of them ahead of it.

Legend:
[1] = biological target: GSK3α (GST-full length GSK3α) (Homo sapiens (Human), UniProt P49840); assay: GSK3α TR-FRET kinase assay; assay type: biochemical
Procedure, shortened: (§1)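 IC50s came from the normalized 665/615 TR-FRET ratio after Tb-anti-pSer641 antibody and streptavidin-d2 detection of phosphorylated biotin-glycogen synthase peptide (200 nM). ATP was 4 μM for GSK3α, 2 μM for GSK3b, or 1 mM; 1 nM enzyme, 100 min, ambient, pH 7.5, after 30-min compound preincubation.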

[2] = biological target: GSK3b (GST-full length GSK3b) (Homo sapiens (Human), UniProt P49841); assay: GSK3b TR-FRET kinase assay; assay type: biochemical
Procedure, shortened: as §1

[3] = 1 nM GSK3α, 4 μM ATP, 30 minute preincubation, Table 16, read-out: GSK3-A TR-FRET BIOCHEMICAL (TR-FRET)
[4] = 1 nM GSK3b, 2 μM ATP, 30 minute preincubation, Table 16, read-out: GSK3-B TR-FRET BIOCHEMICAL (TR-FRET)
[5] = 1 nM GSK3α, 4 μM ATP, 30 minute preincubation, Table 16, read-out: GSK3-A TR-FRET BIOCHEMICAL (TR-FRET), IC50
[6] = 1 nM GSK3b, 2 μM ATP, 30 minute preincubation, Table 16, read-out: GSK3-B TR-FRET BIOCHEMICAL (TR-FRET), IC50
[7] = 1 nM GSK3α, 4 μM ATP, 30 minute preincubation, geometric mean, read-out: GSK3-A TR-FRET BIOCHEMICAL (TR-FRET), GMean, IC50
[8] = 1 nM GSK3b, 2 μM ATP, 30 minute preincubation, geometric mean, read-out: GSK3-B TR-FRET BIOCHEMICAL (TR-FRET), GMean, IC50
[9] = read-out: GSK3-A (TR-FRET 1 mM ATP), GMean, IC50, 1 mM ATP, geometric mean
[10] = read-out: GSK3-B (TR-FRET 1 mM ATP), GMean, IC50, 1 mM ATP, geometric mean
[11] = GSK3-A (TR-FRET 1 mM ATP), GMean, IC50, 1 mM ATP, geometric mean
[12] = GSK3-B (TR-FRET 1 mM ATP), GMean, IC50, 1 mM ATP, geometric mean
[13] = 1 nM GSK3α, 4 μM ATP, 30 minute preincubation, read-out: GSK3-A TR-FRET BIOCHEMICAL (TR-FRET), IC50
[14] = 1 nM GSK3b, 2 μM ATP, 30 minute preincubation, read-out: GSK3-B TR-FRET BIOCHEMICAL (TR-FRET), IC50

GSK3b (GST-full length GSK3b), sequence (P49841 whole entry): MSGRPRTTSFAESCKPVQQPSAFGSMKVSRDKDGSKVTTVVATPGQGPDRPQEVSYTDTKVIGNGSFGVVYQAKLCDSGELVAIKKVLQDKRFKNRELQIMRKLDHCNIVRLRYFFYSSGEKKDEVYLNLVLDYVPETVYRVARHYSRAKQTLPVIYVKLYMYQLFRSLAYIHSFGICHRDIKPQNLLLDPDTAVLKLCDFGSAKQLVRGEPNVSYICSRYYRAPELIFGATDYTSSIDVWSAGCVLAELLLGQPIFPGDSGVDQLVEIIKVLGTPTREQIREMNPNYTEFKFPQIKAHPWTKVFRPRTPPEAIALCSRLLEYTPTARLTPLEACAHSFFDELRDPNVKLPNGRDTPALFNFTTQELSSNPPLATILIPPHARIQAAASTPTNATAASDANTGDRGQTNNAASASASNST
GSK3α (GST-full length GSK3α), sequence (P49840 whole entry): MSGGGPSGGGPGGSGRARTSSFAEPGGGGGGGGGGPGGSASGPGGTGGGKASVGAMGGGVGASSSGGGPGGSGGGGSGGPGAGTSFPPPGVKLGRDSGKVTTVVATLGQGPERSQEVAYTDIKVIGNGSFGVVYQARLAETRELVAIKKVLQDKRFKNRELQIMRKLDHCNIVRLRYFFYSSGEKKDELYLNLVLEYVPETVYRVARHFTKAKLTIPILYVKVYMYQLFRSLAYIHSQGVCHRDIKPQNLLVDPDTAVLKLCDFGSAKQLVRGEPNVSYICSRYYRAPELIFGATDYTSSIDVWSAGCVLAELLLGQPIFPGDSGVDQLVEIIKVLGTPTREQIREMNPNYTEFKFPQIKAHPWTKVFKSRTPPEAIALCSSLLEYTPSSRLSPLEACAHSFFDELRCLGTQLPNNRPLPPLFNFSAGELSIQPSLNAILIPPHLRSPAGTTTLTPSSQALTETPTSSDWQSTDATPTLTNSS

IC50 [1, 5]: 1 to 5 µM
IC50 [2, 6]: > 5 µM
SMILES: CCC1(c2cccc(-c3ccn(C)n3)c2)C2=C(CC(C)(C)CC2=O)Nc2n[nH]c(C)c21 (stereo not shown) [Compound 913039]

IC50 [1, 5]: ≤ 0.1 µM
IC50 [1, 9]: 0.1 to 1 µM
IC50 [2, 6]: ≤ 0.1 µM
IC50 [2, 10]: 1 to 5 µM
SMILES: CC[C@@]1(c2cccc(-c3c(F)cncc3OC)c2)C2=C(CC(C)(C)C2=O)Nc2n[nH]cc21 [Compound 952564]

IC50 [1, 7]: 0.1 to 1 µM
IC50 [2, 8]: 1 to 5 µM
SMILES: CCC1(c2cccc(-c3ccnc(OC)c3F)c2)C2=C(CC(C)(C)NC2=O)Nc2n[nH]cc21 (stereo not shown) [Compound 948520]

IC50 [1, 7]: ≤ 0.1 µM
IC50 [2, 8]: ≤ 0.1 µM
SMILES: CCC1(c2cccc(-c3ccncc3F)c2)C2=C(CC(C)(C)NC2=O)Nc2n[nH]c(C(F)(F)F)c21 (stereo not shown) [Compound 947866]

IC50 [1, 7]: ≤ 0.1 µM
IC50 [1, 9]: 0.1 to 1 µM
IC50 [2, 8]: 0.1 to 1 µM
IC50 [2, 10]: > 5 µM
SMILES: CCC1(c2cccc(-c3cnn(C)c3)c2)C2=C(CC(C)(C)CC2=O)Nc2n[nH]cc21 (stereo not shown) [Compound 819577]

IC50 [1, 13]: ≤ 0.1 µM
IC50 [2, 14]: 0.1 to 1 µM
SMILES: CCC1(c2cccc(-c3cnn(C)c3C)c2)C2=C(CC(C)(C)NC2=O)Nc2n[nH]c(C)c21 (stereo not shown) [Compound 944028]

IC50 [1, 5]: 0.1 to 1 µM
IC50 [2, 6]: 1 to 5 µM
SMILES: CC[C@@]1(c2cccc(-c3cnn(C)c3)c2)C2=C(CC(C)(C)C2=O)Nc2n[nH]cc21 [Compound 950819]

IC50 [1, 7]: ≤ 0.1 µM
IC50 [1, 11]: 0.1 to 1 µM
IC50 [2, 8]: ≤ 0.1 µM
IC50 [2, 12]: 0.1 to 1 µM
SMILES: CC[C@@]1(c2ccccc2)C2=C(CC(C)(C)CC2=O)Nc2n[nH]c(Br)c21 [Compound 792340]

IC50 [1, 5]: ≤ 0.1 µM
IC50 [2, 6]: ≤ 0.1 µM
SMILES: CCC1(c2cccc(-c3ccnc4c3CCCC4)c2)C2=C(CC(C)(C)CC2=O)Nc2n[nH]cc21 (stereo not shown) [Compound 932625]

IC50 [1, 13]: ≤ 0.1 µM
IC50 [2, 14]: 0.1 to 1 µM
SMILES: CCC1(c2cccc(-c3ccnc(C)c3C)c2)C2=C(CC(C)(C)NC2=O)Nc2n[nH]cc21 (stereo not shown) [Compound 945994]

IC50 [1, 7]: ≤ 0.1 µM
IC50 [2, 8]: 0.1 to 1 µM
SMILES: CCC1(c2cccc(-n3ccnc3)c2)C2=C(CC(C)(C)CC2=O)Nc2n[nH]cc21 (stereo not shown) [Compound 854926]

IC50 [1, 5]: ≤ 0.1 µM
IC50 [2, 6]: ≤ 0.1 µM
SMILES: CCC1(c2cccc(-c3c(C)nn(C)c3C)c2)C2=C(CC(C)(C)CC2=O)Nc2n[nH]c(C)c21 (stereo not shown) [Compound 883995]

IC50 [1, 5]: 0.1 to 1 µM
IC50 [2, 6]: > 5 µM
SMILES: CCC1(c2cccc(-c3c(C)nn(C)c3C)c2)C2=C(CC(C)(C)CC2=O)Nc2n[nH]cc21 (stereo not shown) [Compound 911991]

IC50 [1, 7]: ≤ 0.1 µM
IC50 [2, 8]: 0.1 to 1 µM
SMILES: CCC1(c2cccc(-c3ccnc(C)c3)c2)C2=C(CC(C)(C)N(C)C2=O)Nc2n[nH]cc21 (stereo not shown) [Compound 948302]

IC50 [1, 5]: 0.1 to 1 µM
IC50 [2, 6]: 1 to 5 µM
SMILES: CC[C@]1(c2cccc(-c3cnn(-c4ccncn4)c3)c2)C2=C(CC(C)(C)NC2=O)Nc2n[nH]cc21 [Compound 952016]

Continued, compound first:

SMILES: CC1(C)CC(=O)C2=C(C1)Nc1n[nH]cc1C21CCC(S(C)(=O)=O)CC1 (stereo not shown) [Compound 913356]
IC50 [1, 3]: ≤ 0.1 µM
IC50 [2, 4]: ≤ 0.1 µM

SMILES: CCC1(c2cccc(N3CCOCC3)c2)C2=C(CC(C)(C)CC2=O)Nc2n[nH]cc21 (stereo not shown) [Compound 810363]
IC50 [1, 7]: 0.1 to 1 µM
IC50 [2, 8]: 0.1 to 1 µM

SMILES: CC1(C)CC(=O)C2=C(C1)Nc1n[nH]c(C(F)(F)F)c1C21CCc2c(F)cccc21 (stereo not shown) [Compound 806568]
IC50 [1, 7]: 1 to 5 µM
IC50 [2, 8]: 0.1 to 1 µM

SMILES: Cc1cnccc1[C@H]1CC[C@@]2(CC1)C1=C(CC(C)(C)CC1=O)Nc1n[nH]cc12 [Compound 949318]
IC50 [1, 3]: 0.1 to 1 µM
IC50 [2, 4]: 0.1 to 1 µM

SMILES: CC1(C)CC(=O)C2=C(C1)Nc1n[nH]cc1[C@]21CCN(S(=O)(=O)c2ccccc2)C1 [Compound 943485]
IC50 [1, 3]: ≤ 0.1 µM
IC50 [1, 11]: 0.1 to 1 µM
IC50 [2, 4]: ≤ 0.1 µM
IC50 [2, 12]: 1 to 5 µM

SMILES: CCC1(c2cccc(N(c3cccnc3)C(C)C)c2)C2=C(CC(C)(C)CC2=O)Nc2n[nH]cc21 (stereo not shown) [Compound 885344]
IC50 [1, 5]: ≤ 0.1 µM
IC50 [2, 6]: ≤ 0.1 µM

SMILES: Cc1cc(S(=O)(=O)N2CCC3(CC2)C2=C(CC(C)(C)CC2=O)Nc2n[nH]cc23)ccc1OC(C)C [Compound 945678]
IC50 [1, 3]: ≤ 0.1 µM
IC50 [2, 4]: 0.1 to 1 µM

SMILES: CN1CCCC2(CC1)C1=C(CC(C)(C)CC1=O)Nc1n[nH]cc12 (stereo not shown) [Compound 893313]
IC50 [1, 5]: > 5 µM
IC50 [2, 6]: > 5 µM

SMILES: CC[C@]1(c2cccc(N3CCC3)c2)C2=C(CC(C)(C)CC2=O)Nc2n[nH]cc21 [Compound 889632]
IC50 [1, 5]: > 5 µM
IC50 [2, 6]: > 5 µM

SMILES: CC1(C)CC(=O)C2=C(C1)Nc1n[nH]cc1C21CCC(c2ccccc2)CC1 (stereo not shown) [Compound 912084]
IC50 [1, 3]: ≤ 0.1 µM
IC50 [2, 4]: ≤ 0.1 µM

SMILES: CCC1(c2ccccc2)C2=C(CC3(CC3)CC2=O)Nc2n[nH]cc21 (stereo not shown) [Compound 789330]
IC50 [1, 7]: 0.1 to 1 µM
IC50 [2, 8]: 1 to 5 µM

SMILES: CCC1(c2cccc(C(F)F)c2)C2=C(CC(C)(C)CC2=O)Nc2n[nH]cc21 (stereo not shown) [Compound 826716]
IC50 [1, 7]: 0.1 to 1 µM
IC50 [2, 8]: > 5 µM

SMILES: COc1ccccc1S(=O)(=O)N1CCCC2(CC1)C1=C(CC(C)(C)CC1=O)Nc1n[nH]cc12 (stereo not shown) [Compound 917142]
IC50 [1, 3]: ≤ 0.1 µM
IC50 [2, 4]: 0.1 to 1 µM

SMILES: CCC1(c2cccc(N(C)c3cccnc3)c2)C2=C(CC(C)(C)CC2=O)Nc2n[nH]cc21 (stereo not shown) [Compound 874299]
IC50 [1, 7]: 0.1 to 1 µM
IC50 [2, 8]: > 5 µM

SMILES: O=C1C[C@H](C(F)(F)F)CC2=C1C1(CCOCC1)c1c[nH]nc1N2 [Compound 901477]
IC50 [1, 5]: 0.1 to 1 µM
IC50 [2, 6]: 1 to 5 µM

SMILES: CCC1(COCc2ccccc2)C2=C(CC(C)(C)CC2=O)Nc2n[nH]cc21 (stereo not shown) [Compound 874313]
IC50 [1, 5]: 1 to 5 µM
IC50 [2, 6]: 1 to 5 µM

SMILES: CC1(C)CC(=O)C2=C(C1)Nc1n[nH]cc1[C@]21CCO[C@@H](C(C)(C)C)C1 [Compound 912106]
IC50 [1, 5]: 0.1 to 1 µM
IC50 [2, 6]: 1 to 5 µM

SMILES: CCC1(c2cccc(C(F)(F)F)c2)C2=C(CN(C)C2=O)Nc2n[nH]cc21 (stereo not shown) [Compound 917294]
IC50 [1, 3]: 0.1 to 1 µM
IC50 [2, 4]: 1 to 5 µM

SMILES: O=C1CC2(CCCC2)CC2=C1C1(CCOCC1)c1c[nH]nc1N2 [Compound 893308]
IC50 [1, 3]: ≤ 0.1 µM
IC50 [2, 4]: 0.1 to 1 µM

SMILES: CC1(C)CC(=O)C2=C(C1)Nc1n[nH]cc1[C@]21CCC[C@@H](C#N)C1 [Compound 946080]
IC50 [1, 5]: 1 to 5 µM
IC50 [2, 6]: 1 to 5 µM

SMILES: CC[C@@]1(c2cccc(N3CCOCC3)c2)C2=C(CC(C)(C)CC2=O)Nc2n[nH]cc21 [Compound 810364]
IC50 [1, 7]: > 5 µM
IC50 [2, 8]: > 5 µM

SMILES: CCC1(c2cccc(N(C(C)=O)C3CCCC3)c2)C2=C(CC(C)(C)CC2=O)Nc2n[nH]cc21 (stereo not shown) [Compound 912069]
IC50 [1, 5]: ≤ 0.1 µM
IC50 [2, 6]: ≤ 0.1 µM

SMILES: CC1(C)CC2=C(C(=O)[C@H]1F)C1(CCOCC1)c1c[nH]nc1N2 [Compound 883836]
IC50 [1, 3]: 0.1 to 1 µM
IC50 [2, 4]: 1 to 5 µM

SMILES: CC[C@]1(c2ccccc2)C2=C(C[C@@](C)(C(F)(F)F)CC2=O)Nc2n[nH]cc21 [Compound 819570]
IC50 [1, 7]: > 5 µM
IC50 [2, 8]: > 5 µM

SMILES: CC1(C)CC(=O)C2=C(C1)Nc1n[nH]cc1[C@@]21CO[C@@H](C2CC2)C1 [Compound 913442]
IC50 [1, 3]: 0.1 to 1 µM
IC50 [2, 4]: 0.1 to 1 µM

SMILES: Cc1ncc(S(=O)(=O)N2CCC3(CC2)C2=C(CC(C)(C)CC2=O)Nc2n[nH]cc23)s1 [Compound 947899]
IC50 [1, 3]: ≤ 0.1 µM
IC50 [2, 4]: ≤ 0.1 µM

SMILES: CC1(C)CC(=O)C2=C(C1)Nc1n[nH]cc1C21CCN(S(=O)(=O)c2cccc(C(F)(F)F)c2)CC1 [Compound 947244]
IC50 [1, 3]: ≤ 0.1 µM
IC50 [2, 4]: ≤ 0.1 µM

SMILES: CC1(C)CC(=O)C2=C(C1)Nc1n[nH]cc1C21COC2(CN(C(=O)CC3CCCC3)C2)C1 (stereo not shown) [Compound 947293]
IC50 [1, 13]: ≤ 0.1 µM
IC50 [2, 14]: ≤ 0.1 µM
